Here are results for eight molecules from patent US9834518B2, “Compounds for inhibiting cell proliferation in EGFR-driven cancers” (ARIAD Pharmaceuticals, Inc., priority 2011, dated 2017).

The target in assay [1] is EGFR bearing the L858R mution (Homo sapiens, UniProt P00533, L858R). The assay is described as follows: Kinase inhibition, EGFR L858R. The class given is biochemical. The settings on record: 10 μM ATP; 10 pt curves, 3 μM top concentration (singlicates). How it is done: (§1) Kinase inhibitory activity of the compounds was measured against human EGFR (native sequence) and against EGFR bearing the L858R mution and the L858R/T790M double mutation (EGFR, L858R, and L858R/T790M, respectively in Table 1). Additional assays can be conducted with EGFR deletion mutants such as delE746-A750 with or without the additional T790M mutation. Assay conditions included 10 pt curves with 3 μM top concentration (singlicates) and 10 μM ATP.

The target of assay [2] is EGFR bearing the L858R/T790M double mutation (Homo sapiens, UniProt P00533, L858R/T790M). Put plainly: Kinase inhibition, EGFR L858R/T790M. The class given is biochemical. To be noted: 10 μM ATP; 10 pt curves, 3 μM top concentration (singlicates). How it is done: as §1
In assay [3] the target is human EGFR (native sequence) (Homo sapiens, UniProt P00533). The assay is described as follows: Kinase inhibition, human EGFR (native sequence). To be noted: 10 μM ATP; 10 pt curves, 3 μM top concentration (singlicates). Format: biochemical. How it is done:
as §1

Assay [4] concerns the target BAF3 EGFR DEL T790M PURO POOL (Homo sapiens, UniProt P00533, DEL746-750/T790M, cells depend on it). The assay is described as follows: Cell proliferation (MTT), BAF3 EGFR DEL T790M. Format: cell-based. How it is done: (§2) We also assessed the antiproliferative activity of compounds of Formula (I) against BaF3 cells expressing the target EGFR mutations or control (i.e., cell lines expressing wildtype EGFR). Assays were conducted using MTT.

The subject of assay [5] is BAF3 EGFR L858R-T790M PURO POOL. The assay is described as follows: Cell proliferation (MTT), BAF3 EGFR L858R-T790M. Format: cell-based. The settings on record: Ba/F3 EGFR. How it is done: as §2
Another assay has as its system BAF3 PARENTAL
The assay is described as follows: Cell proliferation (MTT), BAF3 parental. The class given is cell-based. To be noted: Mus musculus. How it is done:
as §2

Chain of human EGFR (native sequence) (P00533 25-1210): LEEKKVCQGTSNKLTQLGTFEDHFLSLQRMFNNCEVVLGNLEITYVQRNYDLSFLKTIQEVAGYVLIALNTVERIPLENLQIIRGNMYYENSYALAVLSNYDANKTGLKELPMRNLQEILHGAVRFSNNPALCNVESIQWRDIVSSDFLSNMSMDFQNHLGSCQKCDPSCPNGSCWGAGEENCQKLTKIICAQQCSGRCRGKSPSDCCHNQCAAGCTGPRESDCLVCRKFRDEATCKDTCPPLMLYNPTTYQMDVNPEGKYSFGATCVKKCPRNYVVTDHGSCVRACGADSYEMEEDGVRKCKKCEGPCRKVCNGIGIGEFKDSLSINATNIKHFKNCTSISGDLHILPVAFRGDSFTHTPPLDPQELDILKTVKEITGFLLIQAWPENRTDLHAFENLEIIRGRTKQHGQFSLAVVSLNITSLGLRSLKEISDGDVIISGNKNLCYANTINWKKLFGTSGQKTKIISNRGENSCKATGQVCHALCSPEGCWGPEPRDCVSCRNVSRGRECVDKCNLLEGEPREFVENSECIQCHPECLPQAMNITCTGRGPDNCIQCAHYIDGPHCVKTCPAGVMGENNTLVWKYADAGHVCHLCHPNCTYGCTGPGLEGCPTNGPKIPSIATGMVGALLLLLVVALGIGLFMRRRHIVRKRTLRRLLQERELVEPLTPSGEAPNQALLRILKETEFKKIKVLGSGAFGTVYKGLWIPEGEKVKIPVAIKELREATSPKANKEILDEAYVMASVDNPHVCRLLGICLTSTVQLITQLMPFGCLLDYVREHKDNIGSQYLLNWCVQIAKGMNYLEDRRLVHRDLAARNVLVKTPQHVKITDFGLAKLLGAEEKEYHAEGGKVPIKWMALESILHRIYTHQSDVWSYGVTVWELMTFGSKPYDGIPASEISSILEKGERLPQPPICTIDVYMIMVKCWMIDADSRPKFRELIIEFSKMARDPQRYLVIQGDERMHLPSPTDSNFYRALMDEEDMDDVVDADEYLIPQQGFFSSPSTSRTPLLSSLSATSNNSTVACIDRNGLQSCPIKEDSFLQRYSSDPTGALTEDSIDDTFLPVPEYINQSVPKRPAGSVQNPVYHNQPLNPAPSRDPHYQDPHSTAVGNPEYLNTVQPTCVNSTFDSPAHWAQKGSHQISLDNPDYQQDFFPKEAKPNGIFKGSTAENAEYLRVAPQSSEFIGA
Chain of EGFR bearing the L858R/T790M double mutation (P00533 25-1210 T790M/L858R): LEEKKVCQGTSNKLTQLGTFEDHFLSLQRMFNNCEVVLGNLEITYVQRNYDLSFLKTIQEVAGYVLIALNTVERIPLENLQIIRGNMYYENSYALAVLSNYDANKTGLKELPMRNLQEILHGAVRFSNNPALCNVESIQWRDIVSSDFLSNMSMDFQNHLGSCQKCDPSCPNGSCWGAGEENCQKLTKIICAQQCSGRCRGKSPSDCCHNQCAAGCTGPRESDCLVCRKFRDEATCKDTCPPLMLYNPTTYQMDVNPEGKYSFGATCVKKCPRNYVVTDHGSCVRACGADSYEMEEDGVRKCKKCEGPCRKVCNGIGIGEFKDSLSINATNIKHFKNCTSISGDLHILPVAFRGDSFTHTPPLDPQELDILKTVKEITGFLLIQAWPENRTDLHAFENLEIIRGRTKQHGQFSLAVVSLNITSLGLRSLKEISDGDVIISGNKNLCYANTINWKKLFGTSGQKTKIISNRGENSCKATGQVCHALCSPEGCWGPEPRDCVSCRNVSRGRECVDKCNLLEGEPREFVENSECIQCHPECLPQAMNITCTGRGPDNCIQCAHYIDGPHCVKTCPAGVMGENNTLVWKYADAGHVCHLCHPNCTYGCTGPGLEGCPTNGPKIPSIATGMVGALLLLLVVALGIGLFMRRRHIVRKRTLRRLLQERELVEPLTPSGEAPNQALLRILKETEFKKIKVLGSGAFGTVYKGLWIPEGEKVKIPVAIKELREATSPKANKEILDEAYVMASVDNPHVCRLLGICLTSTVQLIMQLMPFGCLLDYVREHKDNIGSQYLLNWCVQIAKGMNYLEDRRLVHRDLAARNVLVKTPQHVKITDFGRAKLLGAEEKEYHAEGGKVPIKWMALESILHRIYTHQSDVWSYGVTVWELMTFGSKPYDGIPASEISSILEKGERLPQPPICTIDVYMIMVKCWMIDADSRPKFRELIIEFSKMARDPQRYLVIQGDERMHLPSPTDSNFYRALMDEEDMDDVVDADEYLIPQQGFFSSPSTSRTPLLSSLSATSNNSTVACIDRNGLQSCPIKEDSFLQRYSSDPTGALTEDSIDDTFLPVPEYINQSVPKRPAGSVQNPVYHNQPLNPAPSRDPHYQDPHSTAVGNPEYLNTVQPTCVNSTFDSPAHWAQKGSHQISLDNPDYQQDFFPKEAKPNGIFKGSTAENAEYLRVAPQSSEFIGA
Chain of BAF3 EGFR DEL T790M PURO POOL (P00533 with tags, fused parts or gaps DEL746-750/T790M): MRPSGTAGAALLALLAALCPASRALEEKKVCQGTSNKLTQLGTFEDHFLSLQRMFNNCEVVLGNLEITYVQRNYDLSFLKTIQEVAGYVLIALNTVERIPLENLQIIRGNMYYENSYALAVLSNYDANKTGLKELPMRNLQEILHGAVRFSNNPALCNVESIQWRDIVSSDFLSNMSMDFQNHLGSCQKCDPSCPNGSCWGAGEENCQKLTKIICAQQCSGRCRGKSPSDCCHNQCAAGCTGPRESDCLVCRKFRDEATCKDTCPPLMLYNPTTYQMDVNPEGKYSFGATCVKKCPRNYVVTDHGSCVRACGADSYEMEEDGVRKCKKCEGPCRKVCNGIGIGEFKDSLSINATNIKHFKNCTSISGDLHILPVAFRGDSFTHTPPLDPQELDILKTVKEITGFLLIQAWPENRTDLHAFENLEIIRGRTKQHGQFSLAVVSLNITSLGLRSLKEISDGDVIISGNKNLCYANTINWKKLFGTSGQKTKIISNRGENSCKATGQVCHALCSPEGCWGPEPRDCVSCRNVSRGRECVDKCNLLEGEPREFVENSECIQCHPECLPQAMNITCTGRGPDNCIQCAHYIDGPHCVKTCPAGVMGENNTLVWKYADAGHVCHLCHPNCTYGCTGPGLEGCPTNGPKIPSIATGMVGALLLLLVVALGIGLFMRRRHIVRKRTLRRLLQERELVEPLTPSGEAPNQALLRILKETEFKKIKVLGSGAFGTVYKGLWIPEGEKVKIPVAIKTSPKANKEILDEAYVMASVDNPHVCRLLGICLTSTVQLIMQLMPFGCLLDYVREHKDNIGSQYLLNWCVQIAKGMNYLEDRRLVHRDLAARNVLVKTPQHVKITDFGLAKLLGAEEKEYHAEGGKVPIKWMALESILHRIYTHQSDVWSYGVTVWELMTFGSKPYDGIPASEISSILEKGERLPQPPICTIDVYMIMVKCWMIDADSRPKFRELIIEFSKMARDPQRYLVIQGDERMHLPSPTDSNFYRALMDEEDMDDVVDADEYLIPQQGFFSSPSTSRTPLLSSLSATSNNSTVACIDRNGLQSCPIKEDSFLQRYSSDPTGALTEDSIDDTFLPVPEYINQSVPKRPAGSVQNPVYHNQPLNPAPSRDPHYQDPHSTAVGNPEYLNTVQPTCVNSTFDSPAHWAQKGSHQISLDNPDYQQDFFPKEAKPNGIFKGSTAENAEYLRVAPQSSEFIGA
Chain of EGFR bearing the L858R mution (P00533 25-1210 L858R): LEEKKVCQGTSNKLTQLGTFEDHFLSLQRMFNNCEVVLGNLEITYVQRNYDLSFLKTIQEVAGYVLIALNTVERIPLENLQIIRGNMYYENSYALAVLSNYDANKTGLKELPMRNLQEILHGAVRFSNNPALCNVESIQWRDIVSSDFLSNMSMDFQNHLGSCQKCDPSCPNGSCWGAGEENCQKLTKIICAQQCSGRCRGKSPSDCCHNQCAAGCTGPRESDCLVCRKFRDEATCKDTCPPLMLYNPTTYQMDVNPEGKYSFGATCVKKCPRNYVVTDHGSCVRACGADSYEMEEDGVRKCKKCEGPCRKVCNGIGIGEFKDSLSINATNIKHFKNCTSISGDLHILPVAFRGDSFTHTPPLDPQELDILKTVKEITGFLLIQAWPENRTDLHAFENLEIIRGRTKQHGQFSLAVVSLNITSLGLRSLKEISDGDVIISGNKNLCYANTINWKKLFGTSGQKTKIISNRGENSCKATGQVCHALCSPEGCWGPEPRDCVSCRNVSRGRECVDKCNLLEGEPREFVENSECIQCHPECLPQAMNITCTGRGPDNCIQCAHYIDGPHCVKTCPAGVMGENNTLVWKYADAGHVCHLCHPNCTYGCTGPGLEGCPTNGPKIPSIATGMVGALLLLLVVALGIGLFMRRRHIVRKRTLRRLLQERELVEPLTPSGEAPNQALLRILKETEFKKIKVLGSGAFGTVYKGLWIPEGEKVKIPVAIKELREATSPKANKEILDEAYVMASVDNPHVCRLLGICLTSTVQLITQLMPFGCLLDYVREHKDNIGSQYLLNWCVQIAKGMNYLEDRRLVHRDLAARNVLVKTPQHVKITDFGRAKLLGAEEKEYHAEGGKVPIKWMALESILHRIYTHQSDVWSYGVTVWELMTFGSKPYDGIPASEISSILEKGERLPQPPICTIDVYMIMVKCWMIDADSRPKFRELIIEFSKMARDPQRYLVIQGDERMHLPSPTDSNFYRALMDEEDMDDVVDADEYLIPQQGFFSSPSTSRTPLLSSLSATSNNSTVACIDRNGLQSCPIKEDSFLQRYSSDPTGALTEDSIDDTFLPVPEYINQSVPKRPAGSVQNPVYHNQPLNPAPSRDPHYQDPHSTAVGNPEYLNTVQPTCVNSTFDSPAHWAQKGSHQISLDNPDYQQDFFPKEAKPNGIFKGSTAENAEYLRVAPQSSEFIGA

In general, IC50 refers to the concentration needed to halve the response being measured. On to `C=CC(=O)Nc1cccc(Oc2nc(Nc3ccc(P(C)(C)=O)cc3OC)ncc2Cl)c1` [Example 9, N-(3-((5-chloro-2-((4-(dimethylphosphoryl)-2-methoxyphenyl)amino)pyrimidin-4-yl)oxy)phenyl)acrylamide], for which the IC50 in assay [1] was below 51 nM; in assay [2], below 51 nM; in assay [3] it was 101 to 250 nM; in assay [4] it was 51 to 100 nM; in assay [5], 51 to 100 nM; in the assay with BAF3 PARENTAL it was at least 250 nM.

Turning to `COc1ccc(NC(=O)C2(C)CO2)cc1Nc1ncc(Cl)c(Nc2ccccc2P(C)(C)=O)n1` (stereo not drawn) [Example 10, N-(3-((5-chloro-4-((2-(dimethylphosphoryl)phenyl)amino)pyrimidin-2-yl)amino)-4-methoxyphenyl)-2-methyloxirane-2-carboxamide], the 50% inhibitory concentration (IC50) in assay [1] is below 51 nM; in assay [2], below 51 nM; in assay [3] it was below 51 nM; in assay [4] it was below 51 nM; in assay [5], below 51 nM; in the assay on BAF3 PARENTAL it was at least 250 nM.

On to `C=CC(=O)Nc1ccc(OC)c(Nc2ncc(F)c(Nc3ccccc3P(C)(C)=O)n2)c1` [Example 11, N-(3-((4-((2-(dimethylphosphoryl)phenyl)amino)-5-fluoropyrimidin-2-yl)amino)-4-methoxyphenyl)acrylamide], for which the IC50 was below 51 nM in assay [1]; below 51 nM in assay [2]; 101 to 250 nM in assay [3]; 51 to 100 nM in assay [4]; 101 to 250 nM in assay [5]; at least 250 nM in the assay with BAF3 PARENTAL.

Take `C=CC(=O)Nc1ccc(OC)c(Nc2ncc(Br)c(Nc3ccccc3P(C)(C)=O)n2)c1` [Example 12, N-(3-((5-bromo-4-((2-(dimethylphosphoryl)phenyl)amino)pyrimidin-2-yl)amino)-4-methoxyphenyl)acrylamide]: the IC50 in assay [1] was below 51 nM; in assay [2] it was below 51 nM; in assay [3], below 51 nM; in assay [4] it was below 51 nM; in assay [5] it was below 51 nM; with BAF3 PARENTAL, at least 250 nM.

`C=CC(=O)Nc1ccc(OC)c(Nc2nccc(Nc3ccccc3P(C)(C)=O)n2)c1` [Example 13, N-(3-((4-((2-(dimethylphosphoryl)phenyl)amino)pyrimidin-2-yl)amino)-4-methoxyphenyl)acrylamide]: the IC50 in assay [1] is 51 to 100 nM; in assay [2] it was below 51 nM; in assay [3], at least 250 nM; in assay [4], 101 to 250 nM; in assay [5], at least 250 nM; with BAF3 PARENTAL, at least 250 nM.

Consider `C=CC(=O)Nc1ccc(OC)c(Nc2ncc(Cl)c(Nc3cccc(C)c3P(C)(C)=O)n2)c1` [Example 14, N-(3-((5-chloro-4-((2-(dimethylphosphoryl)-3-methylphenyl)amino)pyrimidin-2-yl)amino)-4-methoxyphenyl)acrylamide], for which the IC50 in assay [1] is below 51 nM; in assay [2], below 51 nM; in assay [3], 51 to 100 nM; in assay [4], below 51 nM; in assay [5] it was below 51 nM; in the assay on BAF3 PARENTAL it was at least 250 nM.

For `C=CC(=O)Nc1ccc(OC)c(Nc2ncc(Cl)c(Nc3ccccc3P(=O)(CC)CC)n2)c1` [Example 15, N-(3-((5-chloro-4-((2-(diethylphosphoryl)phenyl)amino)pyrimidin-2-yl)amino)-4-methoxyphenyl)acrylamide], the IC50 is below 51 nM in assay [1]; below 51 nM in assay [2]; below 51 nM in assay [3]; below 51 nM in assay [4]; below 51 nM in assay [5]; at least 250 nM with BAF3 PARENTAL.

`C=C(CN(C)C)C(=O)Nc1ccc(OC)c(Nc2ncc(Cl)c(Nc3ccccc3P(C)(C)=O)n2)c1` [Example 17, N-(3-((5-chloro-4-((2-(dimethylphosphoryl)phenyl)amino)pyrimidin-2-yl)amino)-4-methoxyphenyl)-2-((dimethylamino)methyl)acrylamide]: the IC50 was below 51 nM in assay [1]; below 51 nM in assay [2]; below 51 nM in assay [3]; below 51 nM in assay [4]; below 51 nM in assay [5]; at least 250 nM in the assay with BAF3 PARENTAL.
